# Tested on: HCC1954 cells
# Assay: Inhibition of HCC1954 cell growth (method analogous to BT-474)
# Type: cell-based
# Details: Homo sapiens
# Protocol: BT-474 human mammary gland ductal carcinoma cells were seeded in a clear polystyrene 96-well microculture plate (Corning® Costar® 96-well flat bottom plate, Cat. #3997) in a total volume of 90 μL/well. After 24 hours of incubation in a humidified incubator at 37° C. with 5% CO2 and 95% air, 10 μL of 10×, serially diluted test agents in growth medium were added to each well (10 pt dose response curve, highest concentration 10 μM of test agent). After 72 hours of culture in a humidified incubator at 37° C., in an atmosphere of 5% CO2 and 95% air, the plated cells and Cell Titer-Glo® (Protnega G7571) reagents were brought to room temperature to equilibrate for 30 minutes. 100 μL of Cell Titer-Glo® reagent was added to each well. The plate was shaken for two minutes and then left to equilibrate for ten minutes. The media/Cell Titer-Glo® reagent was transferred to a white polystyrene 96-well microculture plate (Corning® Costar® 96-well flat bottom plate, Cat. #3917) before reading luminescence on a Tecan GENios microplate reader.
# Percent inhibition of cell growth was calculated relative to untreated control wells. The IC50 value for the test agents was determined using Prism 6.05 by curve-fitting of the data using the following four parameter-logistic equation:
# [formula] where Top is the maximal % of control absorbance, Bottom is the minimal % of control absorbance at the highest agent concentration, Y is the % of control absorbance, X is the agent concentration, IC50 is the concentration of agent that inhibits cell growth by 50% compared to the control cells, and n is the slope of the curve.
# Inhibitory response of test compounds against HCC1954 cells was determined using a method analogous to that used for BT-474 cells.
row,SMILES,IC50 [nM]
1,"C/C=C(\C)[C@H]1OC(=O)[C@@H](C)NC(=O)[C@H]([C@H](C)CC)NC(=O)CN(C)C(=O)[C@@H](Cc2ccccc2)N(C)C(=O)[C@H](C)NC(=O)[C@@H](CC(C)C)OC(=O)/C(C)=C/C[C@H](OC(=O)NCCc2ccc(O)cc2)[C@@H]1C [Compound 10, (2R,5S,8R,14S,17R,20S,21S,22S,E)-8-benzyl-20-((E)-but-2-en-2-yl)-14-((R)-sec-butyl)-2-isobutyl-5,7,10,17,21,25-hexamethyl-3,6,9,12,15,18,26-heptaoxo-1,19-dioxa-4,7,10,13,16-pentaazacyclohexacos-24-en-22-yl (4-hydroxyphenethyl)carbamate]",1.36
2,"C/C=C(\C)[C@H]1OC(=O)[C@@H](C)NC(=O)[C@H]([C@H](C)CC)NC(=O)CN(C)C(=O)[C@@H](Cc2ccc(Cl)cc2)N(C)C(=O)[C@H](C)NC(=O)[C@@H](CC(C)C)OC(=O)/C(C)=C/C[C@H](OC(=O)NCCc2ccc(O)cc2)[C@@H]1C [Compound 18, (2R,5S,8R,14S,17R,20S,21S,22S,E)-20-((E)-but-2-en-2-yl)-14-((R)-sec-butyl)-8-(4-chlorobenzyl)-2-isobutyl-5,7,10,17,21,25-hexamethyl-3,6,9,12,15,18,26-heptaoxo-1,19-dioxa-4,7,10,13,16-pentaazacyclohexacos-24-en-22-yl (4-hydroxyphenethyl)carbamate]",2.37
3,"C/C=C(\C)[C@H]1OC(=O)C(C)(C)NC(=O)[C@H]([C@H](C)CC)NC(=O)CN(C)C(=O)[C@@H](Cc2ccc(Cl)cc2)N(C)C(=O)[C@H](C)NC(=O)[C@@H](CC(C)C)OC(=O)/C(C)=C/C[C@H](OC(=O)N2CCN(CCO)CC2)[C@@H]1C [Compound 26, (2R,5S,8R,14S,20S,21S,22S,E)-20-((E)-but-2-en-2-yl)-14-((R)-sec-butyl)-8-(4-chlorobenzyl)-2-isobutyl-5,7,10,17,17,21,25-heptamethyl-3,6,9,12,15,18,26-heptaoxo-1,19-dioxa-4,7,10,13,16-pentaazacyclohexacos-24-en-22-yl 4-(2-hydroxyethyl)piperazine-1-carboxylate]",1.36
4,"C/C=C(\C)[C@H]1OC(=O)[C@@H](C)NC(=O)[C@H]([C@H](C)CC)NC(=O)CN(C)C(=O)[C@@H](Cc2ccc(Cl)cc2)N(C)C(=O)[C@H](C)NC(=O)[C@@H](CC(C)C)OC(=O)/C(C)=C/C[C@H](OC(=O)NCCOCCO)[C@@H]1C [Compound 17, (2R,5S,8R,14S,17R,20S,21S,22S,E)-20-((E)-but-2-en-2-yl)-14-((R)-sec-butyl)-8-(4-chlorobenzyl)-2-isobutyl-5,7,10,17,21,25-hexamethyl-3,6,9,12,15,18,26-heptaoxo-1,19-dioxa-4,7,10,13,16-pentaazacyclohexacos-24-en-22-yl (2-(2-hydroxyethoxy)ethyl)carbamate]",4.15
5,"C/C=C(\C)[C@H]1OC(=O)[C@@H](C)NC(=O)[C@H]([C@H](C)CC)NC(=O)CN(C)C(=O)[C@@H](Cc2ccccc2)N(C)C(=O)[C@H](C)NC(=O)[C@@H](CC(C)C)OC(=O)/C(C)=C/C[C@H](OC(=O)NCCCCCCCCCCCCO)[C@@H]1C [Compound 13, (2R,5S,8R,14S,17R,20S,21S,22S,E)-8-benzyl-20-((E)-but-2-en-2-yl)-14-((R)-sec-butyl)-2-isobutyl-5,7,10,17,21,25-hexamethyl-3,6,9,12,15,18,26-heptaoxo-1,19-dioxa-4,7,10,13,16-pentaazacyclohexacos-24-en-22-yl (12-hydroxydodecyl)carbamate]",18.1
6,"C/C=C(\C)[C@H]1OC(=O)C(C)(C)NC(=O)[C@H]([C@H](C)CC)NC(=O)CN(C)C(=O)[C@@H](Cc2ccc(Cl)cc2)N(C)C(=O)[C@H](C)NC(=O)[C@@H](CC(C)C)OC(=O)/C(C)=C/C[C@H](OC(=O)N(C)CCCCCCNC)[C@@H]1C [Compound 23, (2R,5S,8R,14S,20S,21S,22S,E)-20-((E)-but-2-en-2-yl)-14-((R)-sec-butyl)-8-(4-chlorobenzyl)-2-isobutyl-5,7,10,17,17,21,25-heptamethyl-3,6,9,12,15,18,26-heptaoxo-1,19-dioxa-4,7,10,13,16-pentaazacyclohexacos-24-en-22-yl methyl(6-(methylamino)hexyl)carbamate]",0.47
7,"C/C=C(\C)[C@H]1OC(=O)[C@@H](C)NC(=O)[C@H](C(C)CC)NC(=O)CN(C)C(=O)[C@@H](Cc2ccc(Cl)cc2)N(C)C(=O)[C@H](C)NC(=O)[C@@H](CC(C)C)OC(=O)/C(C)=C/C[C@H](OC(=O)N(C)CCCCCCNC)[C@@H]1C (stereo partly drawn) [Compound 19, (2R,5S,8R,14S,17R,20S,21S,22S,E)-20-((E)-but-2-en-2-yl)-14-((R)-sec-butyl)-8-(4-chlorobenzyl)-2-isobutyl-5,7,10,17,21,25-hexamethyl-3,6,9,12,15,18,26-heptaoxo-1,19-dioxa-4,7,10,13,16-pentaazacyclohexacos-24-en-22-yl methyl (6-(methylamino)hexyl)carbamate]",4.16
8,"C/C=C(\C)[C@H]1OC(=O)[C@@H](C)NC(=O)[C@H]([C@H](C)CC)NC(=O)CN(C)C(=O)[C@@H](Cc2ccc(Cl)cc2)N(C)C(=O)[C@H](C)NC(=O)[C@@H](CC(C)C)OC(=O)/C(C)=C/C[C@H](OC(=O)N(C)CCCCCCCCCCCCNC)[C@@H]1C [Compound 20, (2R,5S,8R,14S,17R,20S,21S,22S,E)-20-((E)-but-2-en-2-yl)-14-((R)-sec-butyl)-8-(4-chlorobenzyl)-2-isobutyl-5,7,10,17,21,25-hexamethyl-3,6,9,12,15,18,26-heptaoxo-1,19-dioxa-4,7,10,13,16-pentaazacyclohexacos-24-en-22-yl methyl(12-(methylamino)dodecyl)carbamate]",15.4
9,"C/C=C(\C)[C@H]1OC(=O)C(C)(C)NC(=O)[C@H]([C@H](C)CC)NC(=O)CN(C)C(=O)[C@@H](Cc2ccc(Cl)cc2)N(C)C(=O)[C@H](C)NC(=O)[C@@H](CC(C)C)OC(=O)/C(C)=C/C[C@H](O)[C@@H]1C [Compound 21, (6S,12R,15S,18R,24S,25S,26S,E)-26-((E)-but-2-en-2-yl)-6-((R)-sec-butyl)-12-(4-chlorobenzyl)-24-hydroxy-18-isobutyl-3,3,10,13,15,21,25-heptamethyl-1,19-dioxa-4,7,10,13,16-pentaazacyclohexacos-21-ene-2,5,8,11,14,17,20-heptaone]",0.56
10,"C/C=C(\C)[C@H]1OC(=O)C(C)(C)NC(=O)[C@H](C(C)CC)NC(=O)CN(C)C(=O)[C@@H](Cc2ccc(Cl)cc2)N(C)C(=O)[C@H](C)NC(=O)[C@@H](CC(C)C)OC(=O)/C(C)=C/C[C@H](OC(=O)NCCCCCO)[C@@H]1C (stereo partly drawn) [Compound 22, (2R,5S,8R,14S,20S,21S,22S,E)-20-((E)-but-2-en-2-yl)-14-((R)-sec-butyl)-8-(4-chlorobenzyl)-2-isobutyl-5,7,10,17,17,21,25-heptamethyl-3,6,9,12,15,18,26-heptaoxo-1,19-dioxa-4,7,10,13,16-pentaazacyclohexacos-24-en-22-yl(5-hydroxypentyl)carbamate]",7.26

# From US11254705B2, “Cyclic peptide analogs and conjugates thereof” (Sirenas LLC, priority 2016, dated 2022)
